Earlier results in patent US10946025B2, “Compounds” (Glaxo Group Limited, priority 2009, dated 2021).

Tests used:
[1] = system: neutrophil; settings: background literature; for superoxide release: neutrophils
[2] = system: neutrophils; settings: treatment of neutrophils; Thelen et al. 1994

Compound: O=c1cc(N2CCOCC2)oc2c(-c3ccccc3)cccc12 [LY294002]
- neutrophil migration [1]: block
- superoxide release [1]: block

Compound: COC[C@H]1OC(=O)c2coc3c2[C@@]1(C)C1=C(C3=O)[C@@H]2CCC(=O)[C@@]2(C)C[C@H]1OC(C)=O [wortmannin]
- neutrophil migration [1]: block
- superoxide release [1]: block
- fMLP-induced respiratory burst response [2]: prevents
